These are literature values, as cited in US20020039567A1, “Methods of treating bone or cartilage conditions by the administration of creatine” (priority 1998, published 2002).

One series has as its system SaOS-2 cells. Conditions: cited from earlier work.
Another series has as its system embryonic chick femora. Conditions: cited from earlier work.
Series [1] concerns chick limb bud mesenchymal cells. Conditions: cited from earlier work; for mineralization: addition of 1 and 2 mM ATP or 2 mM PCr; for rate of cell proliferation, rate of matrix synthesis, mean crystallite length, rate of mineral deposition: contrasted with cultures supplemented with inorganic phosphate.
In series [2] the test system is CK activity in chondroblasts and osteoblasts. Conditions: cited from earlier work.
Series [3] has as its system CK activity in rat epiphyseal cartilage cells. Conditions: cited from earlier work.

For phosphocreatine [PCr], the “alkaline phosphatase (ALP) activity” value with SaOS-2 cells was “increases”. Moreover, the “perichondral ossification in the diaphysis” value in the series on embryonic chick femora (0.1 mM in chick embryo extract with 20% horse serum) is recorded as “accelerated”. In the series on embryonic chick femora (very crude preparations at 0.1 mM in chick embryo extract with 20% horse serum), the “deposition of calcium in the cartilage matrix of the epiphysis” value is listed as “accelerated”. In series [1], the mineralization result is reported as “promoted” and the “rate of cell proliferation, rate of matrix synthesis, mean crystallite length, rate of mineral deposition” value was “does not alter”.

For `CC/C(=C(\c1ccccc1)c1ccc(OCCN(C)C)cc1)c1ccccc1` [tamoxifen], in series [2] (high concentrations), the “effect of tamoxifen by itself” value was “stimulatory effects”. For the same molecule, the “effect of E2 in presence of tamoxifen” value in series [2] (high levels of tamoxifen) is “inhibited”.

Take `C[C@]12CC[C@@H]3c4ccc(O)cc4CC[C@H]3[C@@H]1CC[C@@H]2O` [E2, 17b-estradiol]: the “increase in CK activity” value in series [3] was 40%.

`Nc1ncnc2c1ncn2[C@@H]1O[C@H](COP(=O)(O)OP(=O)(O)OP(=O)(O)O)[C@@H](O)[C@H]1O` [ATP]: in series [1], the mineralization result was “promoted” and the “rate of cell proliferation, rate of matrix synthesis, mean crystallite length, rate of mineral deposition” value was “does not alter”.
